The test system of the assay is U2OS_Bim cells. Description: Apoptosis inhibition assay (Bim-induced apoptosis, cell viability by ATP level). Type of assay: cell-based. The note with it: U2OS_Bim cells; means of duplicates; numbering of Tables 4a/4b; read-out: EC50. The procedure:
A chemical library containing 200000 compounds was screened according to the following procedure: U2OS_Bim cells (a cell line in which the BH3-only protein Bim can be inducibly expressed by the addition of Doxycycline to the growth medium)^[2] were plated in 384-well plates with 30 μl medium at a density of 500 cells per well. 16 hrs after plating, test compounds were transferred from stock plates to the assay plates with the cultured cells. Positive control (20 μM zVAD) and negative control (DMSO) were added to every plate. 1 hr after compound treatment, 0.1 ug/mL Doxycyclin (DOX) was added to induce the expression of the Bim protein. After 24 hrs, cell viability was determined by measuring the ATP levels using a Cell Titer-Glo kit (Promega, G7570) according to the manufacturer's instructions. Luminescence was recorded with a PerkinElmer EnSpire Multimode Plate Reader. Compounds that could rescue cell viability to a level above 50% were selected; these compounds were then screened a second time for assurance.
U2OS_Bim or U2OS_tBid cells were plated at a density of 3000 cells per well in 96-well plates. 24 hrs later, cells were treated with experimental compounds, zVAD (positive control) and DMSO (Negative control) for one hour. The cells were then treated with 0.1 μg/mL DOX to trigger apoptosis. 24 hours after the addition of DOX, cell viability was determined by measuring the ATP levels using a Cell Titer-Glo kit. Cell survival rate was calculated.
U2OS_Bim cells (a U2OS stable cell line transfected with a Bim transgene) were cultured in DMEM culture medium (Gibico). On day one, U2OS_Bim cells were plated in 96-well plates at a density of 3000 cells per well. On day two, cells were pretreated with compounds for one hour. Then cells were treated with 0.1 μg/mL doxycycline (DOX) to trigger apoptosis. 24 hours after DOX treatment, cell viability was determined by measuring the ATP levels using the Cell Titer-Glo kit (G7570, Promega), according to the manufacturer's instructions. Luminescence was recorded with a PerkinElmer EnSpire Multimode Plate Reader. Survived cells were normalized to those cells treated with DMSO. zVAD (20 μM) was used as a positive control. Activity data for compounds […] are represented as means f standard deviation of duplicates; activity data for compounds 187-274 are estimated based on preliminary results.

For orientation: EC50 means the concentration giving half of the maximal effect.

For `CS(=O)(=O)c1nc(-c2cccs2)cc(-n2cccn2)n1` [Compound 36, 2-(methylsulfonyl)-4-(1H-pyrazol-1-yl)-6-(thiophen-2-yl)pyrimidine], the EC50 is 1 to 10 µM.
For `CS(=O)(=O)c1nc(-c2cccs2)cc(-c2cccs2)n1` [Compound 37, 2-(methylsulfonyl)-4,6-di(thiophen-2-yl)pyrimidine], the EC50 was 1 to 10 µM.
As to `CS(=O)(=O)c1nc(-c2cccs2)cc(N2CCCC2=O)n1` [Compound 38, 1-(2-(methylsulfonyl)-6-(thiophen-2-yl)pyrimidin-4-yl)pyrrolidin-2-one], the EC50 is below 100 µM.
In the case of `CS(=O)(=O)c1nc(-c2cccs2)cc(-n2ccccc2=O)n1` [Compound 39, 1-(2-(methylsulfonyl)-6-(thiophen-2-yl)pyrimidin-4-yl)pyridine-2 (1H)-one], the half-maximal effective concentration (EC50) was below 100 µM.
Next, `CS(=O)(=O)c1nc(-c2cccs2)cc(N2CCOCC2)n1` [Compound 40, 4-(2-(methylsulfonyl)-6-(thiophen-2-yl)pyrimidin-4-yl)morpholine]: below 100 µM; `CS(=O)(=O)c1nc(N=[N+]=[N-])cc(-c2cccs2)n1` [Compound 41, 4-azido-2-(methylsulfonyl)-6-(thiophen-2-yl)pyrimidine]: below 100 µM.
For `CN(C)c1cc(-c2cccs2)nc([S+](C)[O-])n1` (centres unmarked) [Compound 42, N,N-dimethyl-2-(methylsulfinyl)-6-(thiophen-2-yl)pyrimidin-4-amine], the EC50 was below 100 µM.
The value for `CS(=O)(=O)c1nc(-c2ccccc2F)cc(C(F)(F)F)n1` [Compound 43, 4-(2-fluorophenyl)-2-(methylsulfonyl)-6-(trifluoromethyl)pyrimidine] was 1 to 20 µM.
For the compound `CS(=O)(=O)c1nc(-c2cccc(F)c2)cc(C(F)(F)F)n1` [Compound 44, 4-(3-fluorophenyl)-2-(methylsulfonyl)-6-(trifluoromethyl)pyrimidine], the concentration giving a half-maximal response (EC50) is 1 to 10 µM.
Next, `CS(=O)(=O)c1nc(-c2ccc(F)cc2)cc(C(F)(F)F)n1` [Compound 45, 4-(4-fluorophenyl)-2-(methylsulfonyl)-6-(trifluoromethyl)pyrimidine]: 1 to 10 µM.
Regarding `Cc1ccccc1-c1cc(C(F)(F)F)nc(S(C)(=O)=O)n1` [Compound 46, 2-(methylsulfonyl)-4-(o-tolyl)-6-(trifluoromethyl)pyrimidine], the EC50 lay in the range of 1 to 20 µM.
For `Cc1cccc(-c2cc(C(F)(F)F)nc(S(C)(=O)=O)n2)c1` [Compound 47, 2-(methylsulfonyl)-4-(m-tolyl)-6-(trifluoromethyl)pyrimidine], the concentration giving a half-maximal response (EC50) was in the range of 1 to 10 µM.
For the compound `Cc1ccc(-c2cc(C(F)(F)F)nc(S(C)(=O)=O)n2)cc1` [Compound 48, 2-(methylsulfonyl)-4-(p-tolyl)-6-(trifluoromethyl)pyrimidine], the EC50 was below 100 µM.
Take `C#Cc1ccc(-c2cc(C(F)(F)F)nc(S(C)(=O)=O)n2)cc1` [Compound 49, 4-(4-ethynylphenyl)-2-(methylsulfonyl)-6-(trifluoromethyl)pyrimidine]: the EC50 was below 100 µM.
In the case of `CS(=O)(=O)c1nc(-c2cccc(O)c2)cc(C(F)(F)F)n1` [Compound 50, 3-(2-(methylsulfonyl)-6-(trifluoromethyl)pyrimidin-4-yl)phenol], the EC50 was below 100 µM.
As for `COc1ccccc1-c1cc(C(F)(F)F)nc(S(C)(=O)=O)n1` [Compound 51, 4-(2-methoxyphenyl)-2-(methylsulfonyl)-6-(trifluoromethyl)pyrimidine], the EC50 was in the range of 1 to 10 µM.
`COc1cccc(-c2cc(C(F)(F)F)nc(S(C)(=O)=O)n2)c1` [Compound 52]: the EC50 was below 100 µM.
`COc1ccc(-c2cc(C(F)(F)F)nc(S(C)(=O)=O)n2)cc1` [Compound 53, 4-(4-methoxyphenyl)-2-(methylsulfonyl)-6-(trifluoromethyl)pyrimidine]: the EC50 was below 100 µM.
For the compound `COc1ccc(-c2cc(C(F)(F)F)nc([S+](C)[O-])n2)cc1` (centres unmarked) [Compound 54, 4-(4-methoxyphenyl)-2-(methylsulfinyl)-6-(trifluoromethyl)pyrimidine], the 50% effective concentration (EC50) lay in the range of 1 to 20 µM.
For the compound `CS(=O)(=O)c1nc(-c2ccccc2C#N)cc(C(F)(F)F)n1` [Compound 55, 2-(2-(methylsulfonyl)-6-(trifluoromethyl)pyrimidin-4-yl)benzonitrile], the EC50 lay within 1 to 20 µM.
Turning to `CS(=O)(=O)c1nc(-c2cccc(C#N)c2)cc(C(F)(F)F)n1` [Compound 56, 3-(2-(methylsulfonyl)-6-(trifluoromethyl)pyrimidin-4-yl)benzonitrile], the EC50 is 1 to 20 µM.
As for `CS(=O)(=O)c1nc(-c2ccc(C#N)cc2)cc(C(F)(F)F)n1` [Compound 57], the EC50 is below 100 µM.
For `COC(=O)c1ccccc1-c1cc(C(F)(F)F)nc(S(C)(=O)=O)n1` [Compound 58, methyl 2-(2-(methylsulfonyl)-6-(trifluoromethyl)pyrimidin-4-yl)benzoate], the EC50 was below 100 µM.
With `COC(=O)c1ccccc1-c1cc(C(F)(F)F)nc([S+](C)[O-])n1` (centres unmarked) [Compound 59, methyl 2-(2-(methylsulfinyl)-6-(trifluoromethyl)pyrimidin-4-yl)benzoate], the 50% effective concentration (EC50) is 1 to 10 µM.
In the case of `COC(=O)c1cccc(-c2cc(C(F)(F)F)nc(S(C)(=O)=O)n2)c1` [Compound 60, methyl 3-(2-(methylsulfonyl)-6-(trifluoromethyl)pyrimidin-4-yl)benzoate], the EC50 is below 100 µM.
The value for `COC(=O)c1ccc(-c2cc(C(F)(F)F)nc(S(C)(=O)=O)n2)cc1` [Compound 61, methyl 4-(2-(methylsulfonyl)-6-(trifluoromethyl)pyrimidin-4-yl)benzoate] was below 100 µM; that for `COC(=O)c1ccc(-c2cc(C(F)(F)F)nc([S+](C)[O-])n2)cc1` (centres unmarked) [Compound 62, methyl 4-(2-(methylsulfinyl)-6-(trifluoromethyl)pyrimidin-4-yl)benzoate] was below 100 µM.
`CS(=O)(=O)c1nc(-c2ccccc2C(=O)O)cc(C(F)(F)F)n1` [Compound 63, 2-(2-(methylsulfonyl)-6-(trifluoromethyl)pyrimidin-4-yl)benzoic acid]: the EC50 was below 100 µM.
`CS(=O)(=O)c1nc(-c2ccc(C(=O)O)cc2)cc(C(F)(F)F)n1` [Compound 64, 4-(2-(methylsulfonyl)-6-(trifluoromethyl)pyrimidin-4-yl)benzoic acid]: the EC50 is below 100 µM.
Turning to `C[S+]([O-])c1nc(-c2ccc(C(=O)O)cc2)cc(C(F)(F)F)n1` (centres unmarked) [Compound 65, 4-(2-(methylsulfinyl)-6-(trifluoromethyl)pyrimidin-4-yl)benzoic acid], the EC50 is below 100 µM.
The value for `CS(=O)(=O)c1nc(-c2cccc(C(N)=O)c2)cc(C(F)(F)F)n1` [Compound 66, 3-(2-(methylsulfonyl)-6-(trifluoromethyl)pyrimidin-4-yl)benzamide] was 1 to 10 µM; that for `CNC(=O)c1ccccc1-c1cc(C(F)(F)F)nc(S(C)(=O)=O)n1` [Compound 67, N-methyl-2-(2-(methylsulfonyl)-6-(trifluoromethyl)pyrimidin-4-yl)benzamide] was below 100 µM.
As for `CNC(=O)c1ccc(-c2cc(C(F)(F)F)nc(S(C)(=O)=O)n2)cc1` [Compound 68, N-methyl-4-(2-(methylsulfonyl)-6-(trifluoromethyl)pyrimidin-4-yl)benzamide], the EC50 fell in the range of 1 to 20 µM.
Take `CN(C)C(=O)c1cccc(-c2cc(C(F)(F)F)nc(S(C)(=O)=O)n2)c1` [Compound 69, N,N-dimethyl-3-(2-(methylsulfonyl)-6-(trifluoromethyl)pyrimidin-4-yl)benzamide]: the EC50 lay in the range of 1 to 10 µM.
`CS(=O)(=O)c1nc(-c2cccc(Cn3ccccc3=O)c2)cc(C(F)(F)F)n1` [Compound 70, 1-(3-(2-(methylsulfonyl)-6-(trifluoromethyl)pyrimidin-4-yl)benzyl) pyridin-2 (1H)-one]: the EC50 is 1 to 10 µM.
`C#CCOc1cccc(-c2cc(C(F)(F)F)nc(S(C)(=O)=O)n2)c1` [Compound 71, 2-(methylsulfonyl)-4-(3-(prop-2-yn-1-yloxy)phenyl)-6-(trifluoromethyl) pyrimidine]: the EC50 is below 100 µM.
Next, `C#CCOc1cccc(-c2cc(C(F)(F)F)nc([S+](C)[O-])n2)c1` (centres unmarked) [Compound 72, 2-(methylsulfinyl)-4-(3-(prop-2-yn-1-yloxy)phenyl)-6-(trifluoromethyl) pyrimidine]: 1 to 10 µM.
Consider `CS(=O)(=O)c1nc(-c2cccc(Oc3ccccc3)c2)cc(C(F)(F)F)n1` [Compound 73, 2-(methylsulfonyl)-4-(3-phenoxyphenyl)-6-(trifluoromethyl)pyrimidine], for which the EC50 was 1 to 10 µM.

(Values after patent US11725000B2, “Apoptosis inhibitors” (National Institute of Biological Sciences, Beijing, priority 2017, dated 2023).)
